This note sets out measurements from patent US20060079453A1, “Hla binding peptides and their uses” (priority 2002, published 2006).

Common to all, as to assay: biochemical
Type in all cases: binding

Assay [1] addresses HLA-DR DRB1*0301 (DR3) (Homo sapiens, UniProt P01903+P01911, A100K/A102G/A103R/A169T/F55Y/I96L/K41T/L162R/M171V/P40S/Q125H/Q178H/Q39Y/R42S/S66N/T106N/T262R/W38E/Y61H).
Assay [2] has as its target HLA-DR DRB5*0101 (DR51) (Homo sapiens, UniProt P01903+Q30154). The following applies: DRB5 *0101.
Assay [3] concerns the target HLA-DR DRB1*1302 (DR13) (Homo sapiens, UniProt P01903+P01911, A100E/A169T/K41T/L162R/M171V/P40S/Q125H/Q178H/Q39Y/Q99D/R42S/S66N/T262R/V115G/W38E/Y61H). Particulars: DRBI *1302.
Assay [4] addresses HLA-DR DRB3*0101 (DR52) (Homo sapiens, UniProt P01903+P79483).
Assay [5] addresses HLA-DR DRB1*0802 (DR8) (Homo sapiens, UniProt P01903+P01911, A100R/A103L/A169T/F76Y/H45Y/I96F/K41T/L162R/M171V/P40S/Q125H/Q178H/Q39Y/Q99D/R218S/R42G/S66Y/V115G/W38E).
Assay [6] has as its target HLA-DR DRB1*0901 (DR9) (Homo sapiens, UniProt P01903+P01911, A100R/A103E/D57H/D86V/F55Y/F60I/F76Y/I96F/K127E/L162R/M171V/P40D/Q125H/Q99R/R33Q/R42F/S133A/S66N/T210M/V115G/W38K/Y107V/Y59G/Y89S). The following applies: DRB1 *0901.
Assay [7] has as its target HLA-DR DRB1*0101 (DR1) (Homo sapiens, UniProt P01903+P01911, A100R/D57E/F55L/F60I/F76Y/I96L/L162R/M171V/P40L/Q125E/R42F/V115G/Y59C). The following applies: DRB1 *0101.
Assay [8] addresses HLA-DR DRB4*0101 (DR53) (Homo sapiens, UniProt P01903+P13762, G164S). Particulars: DRB4 *0101.
Assay [9] addresses HLA-DR DRB1*0401 (DR4) (Homo sapiens, UniProt P01903+P01911, A100K/A169T/F76Y/I96L/K127E/L162R/M171V/N62H/P40V/Q125Y/R42H/S133A/S149N/S66Y/V115G/V209L/W38E). Particulars: DRB1 *0401.
Assay [10] concerns the target HLA-DR DRB1*1101 (DR11) (Homo sapiens, UniProt P01903+P01911, A100R/A169T/A87E/I96F/K41T/L162R/M171V/P40S/Q125H/Q178H/Q39Y/Q99D/R42S/S66Y/T262R/V115G/W38E). Particulars: DRB1 *1101.
Assay [11] addresses HLA-DR DRB1*0701 (DR7) (Homo sapiens, UniProt P01903+P01911, A100R/A102G/A103Q/D57E/D86V/E43K/F76Y/K127E/L162R/M171V/P40G/Q125H/Q99D/R33Q/R42Y/R54Q/S133A/S66F/T210M/V115G/Y107V/Y59L/Y89S). The following applies: DRB1 *0701.
In assay [12] the target is HLA-DR DRB1*1501 (DR15) (Homo sapiens, UniProt P01903+P01911). The following applies: DRBI *1501.

pIC50: −log10 of the molar value. No end group written: not given here.

Sequence of HLA-DR DRB1*1101 (DR11) (P01903 26-254 limits assumed, other chains not shown): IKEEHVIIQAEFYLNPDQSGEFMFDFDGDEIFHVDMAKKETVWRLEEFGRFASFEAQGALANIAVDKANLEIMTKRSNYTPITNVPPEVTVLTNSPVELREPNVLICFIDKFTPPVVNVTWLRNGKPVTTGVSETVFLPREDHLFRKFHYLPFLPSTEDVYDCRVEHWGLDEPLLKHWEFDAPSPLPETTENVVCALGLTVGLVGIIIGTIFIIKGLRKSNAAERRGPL
Sequence of HLA-DR DRB1*0301 (DR3) (P01903 26-254 limits assumed, other chains not shown): as above
Sequence of HLA-DR DRB1*1302 (DR13) (P01903 26-254 limits assumed, other chains not shown): as above

By pIC50 is commonly meant the IC50 on a negative log10 scale, so that one unit is a factor of ten. Read a low pIC50 as a large IC50. For the compound `CC[C@H](C)[C@H](NC(=O)[C@@H](NC(=O)[C@@H](N)CO)C(C)C)C(=O)N[C@@H](CC(C)C)C(=O)N[C@@H](CC(C)C)C(=O)NCC(=O)N[C@@H](CCCNC(=N)N)C(=O)N[C@@H](Cc1c[nH]cn1)C(=O)N[C@@H](CO)C(=O)N[C@@H](CC(C)C)C(=O)N[C@@H](Cc1ccccc1)C(=O)N[C@@H](Cc1c[nH]cn1)C(=O)N1CCC[C@H]1C(=O)N[C@@H](CCC(=O)O)C(=O)N[C@@H](CC(=O)O)C(=O)O` [SVILLGRHSLFHPED], the pIC50 in assay [1] was 5.85; in assay [2] it was 4.79; in assay [3], 7.02; in assay [4], 4.88; in [5], 6.30; in assay [6], 5.28. In addition, the pIC50 in assay [7] is 6.14; in [8] it was 5.36; in assay [9], 4.90; in [10], 7.02.
In the case of `CC[C@H](C)[C@H](NC(=O)CNC(=O)[C@H](Cc1ccc(O)cc1)NC(=O)[C@H](CC(C)C)NC(=O)[C@H](CO)NC(=O)[C@H](CC(C)C)NC(=O)[C@H](CC(C)C)NC(=O)[C@H](CO)NC(=O)[C@@H](N)CC(C)C)C(=O)N[C@@H](Cc1c[nH]cn1)C(=O)N[C@@H](CCCCN)C(=O)N[C@@H](CCC(N)=O)C(=O)N[C@@H](CCCCN)C(=O)N[C@@H](CCC(=O)O)C(=O)N[C@@H](CCCCN)C(=O)O`, the pIC50 in [1] is below 4.09; in [2], 8.47; in assay [3], below 4.46; in [4] it was below 4.83; in assay [11] it was below 4.45; in [5] it was 5.79. In addition, the pIC50 in [6] was 5.30; in [7] it was 6.18; in assay [8] it was 6.11; in assay [9], 5.35; in [12], 7.24.
As to `CC[C@H](C)[C@H](NC(=O)[C@H](CCC(N)=O)NC(=O)[C@@H](N)CCCNC(=N)N)C(=O)N[C@@H](Cc1ccc(O)cc1)C(=O)N[C@H](C(=O)N[C@@H](C)C(=O)N[C@@H](C)C(=O)N[C@@H](Cc1ccccc1)C(=O)N[C@H](C(=O)N[C@H](C(=O)N[C@@H](CCC(N)=O)C(=O)N[C@@H](C)C(=O)N[C@@H](C)C(=O)N[C@@H](C)C(=O)N[C@@H](CCC(=O)O)C(=O)O)C(C)C)[C@@H](C)O)C(C)C`, the pIC50 in assay [1] was 4.55; in assay [3], 6.28; in [4], 5.17; in assay [5], 7.44; in assay [6], 7.04; in [7], 8.43. The pIC50 was 7.33 in assay [8], 8.92 in assay [9] and 7.46 in assay [10].
Regarding `CSCC[C@H](NC(=O)CNC(=O)CNC(=O)[C@H](CCCNC(=N)N)NC(=O)[C@@H](NC(=O)[C@H](CCC(N)=O)NC(=O)[C@H](C)NC(=O)[C@@H](NC(=O)[C@@H](NC(=O)[C@H](CC(C)C)NC(=O)[C@H](Cc1c[nH]cn1)NC(=O)[C@H](Cc1ccc(O)cc1)NC(=O)[C@H](CCCCN)NC(=O)[C@H](Cc1ccccc1)NC(=O)[C@@H](N)CCSC)[C@@H](C)O)C(C)C)C(C)C)C(=O)O`, the pIC50 in assay [1] is 4.54; in assay [2] it was 8.24; in [3], 5.79; in [4], 5.44; in assay [11], 7.14; in assay [5] it was 7.15. For the same compound, the pIC50 in assay [6] was 6.58; in [7], 7.80; in [9], 7.74; in [12], 5.92.
Take `CC(C)C[C@H](NC(=O)[C@@H](NC(=O)[C@H](CCC(=O)O)NC(=O)[C@H](C)NC(=O)[C@H](C)NC(=O)[C@H](C)NC(=O)[C@H](CCC(N)=O)NC(=O)[C@@H](NC(=O)[C@@H](NC(=O)[C@H](Cc1ccccc1)NC(=O)[C@H](C)NC(=O)[C@H](C)NC(=O)[C@@H](N)C(C)C)[C@@H](C)O)C(C)C)[C@@H](C)O)C(=O)N[C@@H](CO)C(=O)N[C@@H](CCC(=O)O)C(=O)O`: the pIC50 was below 4.12 in assay [1]; 6.42 in assay [2]; 5.67 in assay [4]; 6.10 in assay [11]; 5.85 in assay [5]; 6.90 in assay [6]. For the same compound, the pIC50 in [7] is 7.85; in assay [8], 6.33; in assay [9], 7.24; in [12] it was 4.74.
On to `CC(C)C[C@H](NC(=O)[C@H](CCC(=O)O)NC(=O)[C@H](CCCCN)NC(=O)[C@H](C)NC(=O)[C@H](CC(C)C)NC(=O)[C@@H](NC(=O)[C@H](CO)NC(=O)[C@H](CCCNC(=N)N)NC(=O)[C@H](CC(=O)O)NC(=O)[C@H](CC(C)C)NC(=O)[C@H](Cc1c[nH]c2ccccc12)NC(=O)[C@H](Cc1ccccc1)NC(=O)[C@H](Cc1ccccc1)NC(=O)[C@H](CC(C)C)NC(=O)[C@@H](N)CC(C)C)C(C)C)C(=O)O`, for which the negative logarithm of the IC50 (pIC50) in [1] is 8.20; in [3] it was 7.62; in assay [4], 7.07; in assay [5], 6.79; in assay [6], 6.29; in assay [7] it was 8.54. Moreover, the pIC50 is 8.12 in assay [8], 8.59 in [9] and 7.47 in assay [12].
For TSITSLYQLENYTG, the negative-log IC50 (pIC50) in [1] was 4.01; in assay [2], 4.79; in assay [3] it was below 4.77; in assay [4] it was 4.03; in [11], 5.08; in [5] it was 4.84. For the same compound, the pIC50 is 4.33 in [6], 5.78 in assay [8], 5.79 in assay [9] and 5.99 in [10].
Consider KLKLYTGEATRTGDR, for which the pIC50 was 3.93 in assay [1]; 6.08 in assay [3]; 5.28 in [4]; 5.08 in [11]; 5.70 in assay [5]; below 4.10 in assay [6]. Also, the pIC50 is 6.75 in assay [7], 4.83 in assay [8], 7.82 in [9] and 7.74 in [12].
On to EDFFKLERDMKINCS, for which the pIC50 in [1] is 6.33; in [2], 5.46; in assay [3], 5.50; in [4], 5.39; in assay [11], 5.07; in [5] it was 5.84. Moreover, the pIC50 is below 4.28 in assay [6]; 5.57 in assay [7]; 5.10 in assay [8]; 6.65 in [9]; below 5.46 in [12].
Consider HPLYNMSLLKHQSLR, for which the pIC50 in assay [1] is 4.89; in assay [2], 6.66; in assay [3] it was 6.26; in [4], below 4.83; in assay [11], 5.89; in [5], 6.42. In addition, the pIC50 was 6.70 in assay [6]; 6.63 in assay [7]; 8.08 in assay [8]; 6.30 in assay [9]; 6.33 in assay [12].
Regarding `CC[C@H](C)[C@H](NC(=O)[C@H](Cc1ccccc1)NC(=O)[C@H](Cc1c[nH]c2ccccc12)NC(=O)CNC(=O)[C@H](Cc1ccccc1)NC(=O)[C@H](CC(C)C)NC(=O)[C@H](Cc1ccccc1)NC(=O)CNC(=O)[C@@H](N)CC(C)C)C(=O)N[C@@H](CCCCN)C(=O)N[C@@H](CO)C(=O)N[C@@H](CO)C(=O)N[C@@H](CC(N)=O)C(=O)N[C@@H](CCC(=O)O)C(=O)N[C@@H](C)C(=O)O`, the pIC50 in assay [1] is below 4.12; in assay [2], 6.34; in assay [3], 5.00; in [4], 6.17; in [11], 5.65; in assay [5] it was 5.85. In addition, the pIC50 in [6] is 5.77; in assay [7], 8.00; in assay [8] it was 5.03; in [9], 5.87; in assay [10], 5.14.
